Data reported in the kinase profiling compilation of Christmann-Franck et al. (2016).

Key:
Assay in all cases: KINOMEscan competition binding
Conditions in all cases: compound 10.0 µM
PRKCD (human) = PRKCD (human) (UniProt Q05655)
TAOK1 (human) = TAOK1 (human) (UniProt Q7L7X3)
FLT1 (human) = FLT1 (human) (UniProt P17948)
MAP3K5 (human) = MAP3K5 (human) (UniProt Q99683)
RPS6KA6 KD2 (human) = RPS6KA6 KD2 (human) (UniProt Q9UK32)
STK17A (human) = STK17A (human) (UniProt Q9UEE5)
RPS6KA5 KD2 (human) = RPS6KA5 KD2 (human) (UniProt O75582)
CHEK1 (human) = CHEK1 (human) (UniProt O14757)
PKN2 (human) = PKN2 (human) (UniProt Q16513)
RIOK1 (human) = RIOK1 (human) (UniProt Q9BRS2)
BLK (human) = BLK (human) (UniProt P51451)
STK32C (human) = STK32C (human) (UniProt Q86UX6)
NTRK3 (human) = NTRK3 (human) (UniProt Q16288)
WEE1 (human) = WEE1 (human) (UniProt P30291)
PIK3CD (human) = PIK3CD (human) (UniProt O00329)
MARK4 (human) = MARK4 (human) (UniProt Q96L34)
ABL2 (human) = ABL2 (human) (UniProt P42684)
PRKAA2 (human) = PRKAA2 (human) (UniProt P54646)
CAMKK1 (human) = CAMKK1 (human) (UniProt Q8N5S9)
CDK3 (human) = CDK3 (human) (UniProt Q00526)
TEK (human) = TEK (human) (UniProt Q02763)
LIMK2 (human) = LIMK2 (human) (UniProt P53671)
MAPK13 (human) = MAPK13 (human) (UniProt O15264)
MAPK3 (human) = MAPK3 (human) (UniProt P27361)
CaMK1 (human) = CaMK1 (human) (UniProt Q14012)
SRPK1 (human) = SRPK1 (human) (UniProt Q96SB4)
RIPK1 (human) = RIPK1 (human) (UniProt Q13546)
PDPK1 (human) = PDPK1 (human) (UniProt O15530)
EPHB4 (human) = EPHB4 (human) (UniProt P54760)
MYLK2 (human) = MYLK2 (human) (UniProt Q9H1R3)
[1] = system: FLT3 (human), P36888 [D835Y]
CSK (human) = CSK (human) (UniProt P41240)
RPS6KA6 KD1 (human) = RPS6KA6 KD1 (human) (UniProt Q9UK32)
[2] = system: PIK3CA (human), P42336 [E545K]
STK16 (human) = STK16 (human) (UniProt O75716)
MAP4K3 (human) = MAP4K3 (human) (UniProt Q8IVH8)
EPHA3 (human) = EPHA3 (human) (UniProt P29320)
CAMKK2 (human) = CAMKK2 (human) (UniProt Q96RR4)
[3] = system: FLT3 (human), P36888 [ITD]
MAPK1 (human) = MAPK1 (human) (UniProt P28482)
AXL (human) = AXL (human) (UniProt P30530)
PLK4 (human) = PLK4 (human) (UniProt O00444)

RIPK1 (human), sequence (Q13546 whole entry, looked up): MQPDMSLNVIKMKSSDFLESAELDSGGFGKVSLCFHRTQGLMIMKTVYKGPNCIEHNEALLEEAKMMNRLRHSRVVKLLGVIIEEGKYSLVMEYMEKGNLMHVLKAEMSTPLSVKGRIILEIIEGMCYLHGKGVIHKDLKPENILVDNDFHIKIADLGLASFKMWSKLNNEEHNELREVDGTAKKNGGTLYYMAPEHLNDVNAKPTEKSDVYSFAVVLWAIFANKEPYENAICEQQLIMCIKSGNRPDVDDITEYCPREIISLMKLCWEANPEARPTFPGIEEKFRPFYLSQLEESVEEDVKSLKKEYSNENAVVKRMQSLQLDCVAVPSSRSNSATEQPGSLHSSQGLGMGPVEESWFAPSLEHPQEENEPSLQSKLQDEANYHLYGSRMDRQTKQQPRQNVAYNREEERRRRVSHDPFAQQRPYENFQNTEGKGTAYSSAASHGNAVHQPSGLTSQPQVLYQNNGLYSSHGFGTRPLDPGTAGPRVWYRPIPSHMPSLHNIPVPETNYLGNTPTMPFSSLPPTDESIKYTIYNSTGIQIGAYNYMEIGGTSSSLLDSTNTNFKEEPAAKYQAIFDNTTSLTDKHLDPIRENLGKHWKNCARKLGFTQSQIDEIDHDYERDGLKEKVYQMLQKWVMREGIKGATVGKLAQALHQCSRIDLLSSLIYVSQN
ABL2 (human), sequence (P42684 whole entry, looked up): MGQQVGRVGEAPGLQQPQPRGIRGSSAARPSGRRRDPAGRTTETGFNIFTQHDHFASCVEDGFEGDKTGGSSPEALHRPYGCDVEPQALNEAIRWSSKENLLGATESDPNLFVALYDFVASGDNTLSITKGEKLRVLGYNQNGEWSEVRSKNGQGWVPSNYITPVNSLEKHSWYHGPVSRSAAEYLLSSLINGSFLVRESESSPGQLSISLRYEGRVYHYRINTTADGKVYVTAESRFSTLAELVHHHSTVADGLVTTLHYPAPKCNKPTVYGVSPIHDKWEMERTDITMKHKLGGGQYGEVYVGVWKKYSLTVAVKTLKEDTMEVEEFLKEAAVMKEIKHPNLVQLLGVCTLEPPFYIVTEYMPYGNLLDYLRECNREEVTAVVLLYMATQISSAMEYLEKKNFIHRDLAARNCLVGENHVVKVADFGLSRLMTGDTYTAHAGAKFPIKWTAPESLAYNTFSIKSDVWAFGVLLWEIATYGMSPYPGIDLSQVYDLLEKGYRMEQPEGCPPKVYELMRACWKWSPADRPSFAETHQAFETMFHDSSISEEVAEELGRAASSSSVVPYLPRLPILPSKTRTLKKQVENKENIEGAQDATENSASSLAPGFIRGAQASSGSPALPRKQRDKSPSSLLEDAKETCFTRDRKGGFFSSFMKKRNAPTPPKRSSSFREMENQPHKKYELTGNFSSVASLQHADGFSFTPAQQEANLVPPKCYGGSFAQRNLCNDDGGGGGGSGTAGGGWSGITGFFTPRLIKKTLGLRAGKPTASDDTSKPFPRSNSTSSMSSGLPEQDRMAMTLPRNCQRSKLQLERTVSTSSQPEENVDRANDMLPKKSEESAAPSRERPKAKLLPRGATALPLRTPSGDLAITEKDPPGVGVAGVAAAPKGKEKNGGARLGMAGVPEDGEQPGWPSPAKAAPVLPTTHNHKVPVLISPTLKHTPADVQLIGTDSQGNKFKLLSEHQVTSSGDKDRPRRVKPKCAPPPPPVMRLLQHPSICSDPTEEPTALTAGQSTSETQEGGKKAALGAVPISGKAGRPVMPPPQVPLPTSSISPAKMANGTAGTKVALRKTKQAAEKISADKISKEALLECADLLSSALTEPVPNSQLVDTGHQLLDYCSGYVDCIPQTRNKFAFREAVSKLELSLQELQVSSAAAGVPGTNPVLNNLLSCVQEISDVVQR
BLK (human), sequence (P51451 whole entry, looked up): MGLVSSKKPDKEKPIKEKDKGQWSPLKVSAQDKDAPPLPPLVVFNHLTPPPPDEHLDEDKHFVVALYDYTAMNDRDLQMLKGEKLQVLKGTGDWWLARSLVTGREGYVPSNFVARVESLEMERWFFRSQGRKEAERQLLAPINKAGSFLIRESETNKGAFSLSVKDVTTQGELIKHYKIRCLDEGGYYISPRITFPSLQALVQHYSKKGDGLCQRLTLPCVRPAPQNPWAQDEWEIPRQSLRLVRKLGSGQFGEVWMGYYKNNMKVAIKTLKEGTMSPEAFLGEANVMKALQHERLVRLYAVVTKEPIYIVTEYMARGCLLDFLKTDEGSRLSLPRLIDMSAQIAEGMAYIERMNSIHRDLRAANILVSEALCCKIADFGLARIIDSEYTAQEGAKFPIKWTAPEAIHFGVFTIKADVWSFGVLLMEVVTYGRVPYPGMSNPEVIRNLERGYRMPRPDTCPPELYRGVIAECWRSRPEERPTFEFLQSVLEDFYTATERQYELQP
CSK (human), sequence (P41240 whole entry, looked up): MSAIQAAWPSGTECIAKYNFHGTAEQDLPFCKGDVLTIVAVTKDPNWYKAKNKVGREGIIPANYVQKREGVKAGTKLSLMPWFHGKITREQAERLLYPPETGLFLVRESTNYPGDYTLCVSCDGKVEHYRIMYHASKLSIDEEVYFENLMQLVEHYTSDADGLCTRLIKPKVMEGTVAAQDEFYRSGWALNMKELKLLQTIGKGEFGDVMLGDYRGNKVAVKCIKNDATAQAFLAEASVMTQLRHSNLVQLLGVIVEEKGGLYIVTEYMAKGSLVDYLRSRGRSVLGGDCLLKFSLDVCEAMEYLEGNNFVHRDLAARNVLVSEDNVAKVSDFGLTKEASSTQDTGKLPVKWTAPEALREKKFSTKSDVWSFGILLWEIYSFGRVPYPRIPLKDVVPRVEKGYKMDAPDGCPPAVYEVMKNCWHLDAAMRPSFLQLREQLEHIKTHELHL
MAP4K3 (human), sequence (Q8IVH8 whole entry, looked up): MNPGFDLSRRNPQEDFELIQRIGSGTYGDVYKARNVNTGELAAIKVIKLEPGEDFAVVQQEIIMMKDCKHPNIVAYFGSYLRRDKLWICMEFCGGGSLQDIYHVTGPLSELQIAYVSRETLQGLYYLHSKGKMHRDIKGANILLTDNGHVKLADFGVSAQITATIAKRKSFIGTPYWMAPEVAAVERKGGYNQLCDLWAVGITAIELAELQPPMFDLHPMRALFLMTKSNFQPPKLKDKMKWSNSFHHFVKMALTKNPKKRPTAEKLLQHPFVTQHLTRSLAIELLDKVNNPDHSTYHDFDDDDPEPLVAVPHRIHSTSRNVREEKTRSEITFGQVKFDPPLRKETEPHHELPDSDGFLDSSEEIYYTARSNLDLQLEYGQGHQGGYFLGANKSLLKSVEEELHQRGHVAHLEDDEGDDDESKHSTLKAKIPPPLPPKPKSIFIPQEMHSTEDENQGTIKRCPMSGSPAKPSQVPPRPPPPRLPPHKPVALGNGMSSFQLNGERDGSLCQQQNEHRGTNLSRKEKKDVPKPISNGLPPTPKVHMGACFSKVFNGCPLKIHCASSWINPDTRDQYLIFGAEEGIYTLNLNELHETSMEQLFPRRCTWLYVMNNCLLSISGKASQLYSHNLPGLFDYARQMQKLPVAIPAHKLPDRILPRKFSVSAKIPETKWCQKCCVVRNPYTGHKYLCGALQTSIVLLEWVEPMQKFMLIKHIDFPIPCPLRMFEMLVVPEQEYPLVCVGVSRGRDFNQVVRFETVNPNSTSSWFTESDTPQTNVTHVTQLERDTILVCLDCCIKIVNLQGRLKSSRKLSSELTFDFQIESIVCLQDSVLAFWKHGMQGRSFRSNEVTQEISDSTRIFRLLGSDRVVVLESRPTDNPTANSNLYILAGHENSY
MAPK13 (human), sequence (O15264 whole entry, looked up): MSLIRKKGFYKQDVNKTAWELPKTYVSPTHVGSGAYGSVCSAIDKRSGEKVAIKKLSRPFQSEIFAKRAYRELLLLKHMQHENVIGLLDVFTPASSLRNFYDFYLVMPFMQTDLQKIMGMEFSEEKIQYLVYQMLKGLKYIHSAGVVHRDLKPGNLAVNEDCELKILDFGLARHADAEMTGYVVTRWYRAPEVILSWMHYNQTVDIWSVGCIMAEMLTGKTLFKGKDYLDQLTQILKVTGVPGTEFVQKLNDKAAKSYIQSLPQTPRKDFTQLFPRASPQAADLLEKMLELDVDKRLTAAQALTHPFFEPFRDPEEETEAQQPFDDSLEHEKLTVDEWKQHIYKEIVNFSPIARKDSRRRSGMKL
NTRK3 (human), sequence (Q16288 whole entry, looked up): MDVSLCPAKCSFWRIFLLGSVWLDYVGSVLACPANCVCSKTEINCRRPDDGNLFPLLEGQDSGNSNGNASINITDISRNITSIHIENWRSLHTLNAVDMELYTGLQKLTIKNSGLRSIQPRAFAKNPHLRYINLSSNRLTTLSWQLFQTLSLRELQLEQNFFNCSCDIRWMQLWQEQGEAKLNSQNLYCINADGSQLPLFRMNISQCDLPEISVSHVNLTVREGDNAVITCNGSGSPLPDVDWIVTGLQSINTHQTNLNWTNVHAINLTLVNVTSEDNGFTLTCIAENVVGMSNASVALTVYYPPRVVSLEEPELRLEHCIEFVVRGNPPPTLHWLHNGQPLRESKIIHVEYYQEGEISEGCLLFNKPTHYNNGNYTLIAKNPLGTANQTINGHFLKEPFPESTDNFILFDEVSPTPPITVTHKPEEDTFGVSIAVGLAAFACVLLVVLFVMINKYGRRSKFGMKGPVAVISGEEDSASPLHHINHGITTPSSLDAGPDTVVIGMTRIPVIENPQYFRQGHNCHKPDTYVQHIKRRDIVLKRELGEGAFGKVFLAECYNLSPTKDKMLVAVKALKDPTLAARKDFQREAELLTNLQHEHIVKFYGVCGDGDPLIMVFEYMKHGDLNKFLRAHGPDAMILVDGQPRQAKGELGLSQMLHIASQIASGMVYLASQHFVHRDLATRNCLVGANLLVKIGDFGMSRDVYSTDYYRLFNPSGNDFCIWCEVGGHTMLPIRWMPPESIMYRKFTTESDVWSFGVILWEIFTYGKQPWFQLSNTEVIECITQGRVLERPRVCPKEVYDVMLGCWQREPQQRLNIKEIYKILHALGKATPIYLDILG

Work on `CCN1CCN(Cc2ccc(NC(=O)c3ccc(C)c(/C=C/c4cnc(Nc5cc(N6CCNCC6)nc(C)n5)cn4)c3)cc2C(F)(F)F)CC1` yielded a kinase still bound, per cent of control (PRKCD (human)) of 100%, a kinase still bound, per cent of control (TAOK1 (human)) of 7% and a kinase still bound, per cent of control (FLT1 (human)) of 27%. It also gave a kinase still bound, per cent of control (MAP3K5 (human)) of 100%, a kinase still bound, per cent of control (RPS6KA6 KD2 (human)) of 11% and a kinase still bound, per cent of control (STK17A (human)) of 11%. The kinase still bound, per cent of control (RPS6KA5 KD2 (human)) was 73%, the kinase still bound, per cent of control (CHEK1 (human)) was 82% and the kinase still bound, per cent of control (PKN2 (human)) was 100%. For the same compound, the kinase still bound, per cent of control (RIOK1 (human)) was 100%, the kinase still bound, per cent of control (BLK (human)) was 0.1% and the kinase still bound, per cent of control (STK32C (human)) was 96%. It also gave a kinase still bound, per cent of control (NTRK3 (human)) of 1%, a kinase still bound, per cent of control (WEE1 (human)) of 100% and a kinase still bound, per cent of control (PIK3CD (human)) of 50%. For the same compound, the kinase still bound, per cent of control (MARK4 (human)) was 100%, the kinase still bound, per cent of control (ABL2 (human)) was 0.7% and the kinase still bound, per cent of control (PRKAA2 (human)) was 14%. For the same compound, the kinase still bound, per cent of control (CAMKK1 (human)) was 98%, the kinase still bound, per cent of control (CDK3 (human)) was 100% and the kinase still bound, per cent of control (TEK (human)) was 0%. For the same compound, the kinase still bound, per cent of control (LIMK2 (human)) was 9.6%, the kinase still bound, per cent of control (MAPK13 (human)) was 83% and the kinase still bound, per cent of control (MAPK3 (human)) was 94%. For the same compound, the kinase still bound, per cent of control (CaMK1 (human)) was 90%, the kinase still bound, per cent of control (SRPK1 (human)) was 77% and the kinase still bound, per cent of control (RIPK1 (human)) was 2.7%. For the same compound, the kinase still bound, per cent of control (PDPK1 (human)) was 100%, the kinase still bound, per cent of control (EPHB4 (human)) was 23% and the kinase still bound, per cent of control (MYLK2 (human)) was 3.8%. For the same compound, the kinase still bound, per cent of control [1] was 3.2%, the kinase still bound, per cent of control (CSK (human)) was 0.55% and the kinase still bound, per cent of control (RPS6KA6 KD1 (human)) was 100%. It also gave a kinase still bound, per cent of control [2] of 100%, a kinase still bound, per cent of control (STK16 (human)) of 100% and a kinase still bound, per cent of control (MAP4K3 (human)) of 0.9%. The kinase still bound, per cent of control (EPHA3 (human)) was 4.4%, the kinase still bound, per cent of control (CAMKK2 (human)) was 95% and the kinase still bound, per cent of control [3] was 5.6%. It also gave a kinase still bound, per cent of control (MAPK1 (human)) of 100%, a kinase still bound, per cent of control (AXL (human)) of 26% and a kinase still bound, per cent of control (PLK4 (human)) of 92%.
`CCN1CCN(Cc2ccc(NC(=O)c3ccc(C)c(Oc4ccnc5[nH]ccc45)c3)cc2C(F)(F)F)CC1` showed a kinase still bound, per cent of control (TAOK1 (human)) of 3%, a kinase still bound, per cent of control (FLT1 (human)) of 1.6% and a kinase still bound, per cent of control (BLK (human)) of 0.45%. For the same compound, the kinase still bound, per cent of control (NTRK3 (human)) was 3.8%, the kinase still bound, per cent of control (ABL2 (human)) was 0.6% and the kinase still bound, per cent of control (TEK (human)) was 0%. It also gave a kinase still bound, per cent of control (MAPK13 (human)) of 0.55%, a kinase still bound, per cent of control (CaMK1 (human)) of 0% and a kinase still bound, per cent of control (RIPK1 (human)) of 0%. The kinase still bound, per cent of control (MYLK2 (human)) was 8.4%, the kinase still bound, per cent of control [1] was 14% and the kinase still bound, per cent of control (CSK (human)) was 0.45%. It also gave a kinase still bound, per cent of control (MAP4K3 (human)) of 18%, a kinase still bound, per cent of control (EPHA3 (human)) of 3.4% and a kinase still bound, per cent of control (CAMKK2 (human)) of 28%. For the same compound, the kinase still bound, per cent of control [3] was 0.7%.
For `COc1cc(N2CCC(N3CCN(C)CC3)CC2)ccc1Nc1ncc(Cl)c(Nc2ccccc2S(=O)(=O)C(C)C)n1`, the kinase still bound, per cent of control (PRKCD (human)) was 28%, the kinase still bound, per cent of control (TAOK1 (human)) was 0.1% and the kinase still bound, per cent of control (FLT1 (human)) was 2.8%. The kinase still bound, per cent of control (MAP3K5 (human)) was 40%, the kinase still bound, per cent of control (RPS6KA6 KD2 (human)) was 1.8% and the kinase still bound, per cent of control (STK17A (human)) was 5.9%. For the same compound, the kinase still bound, per cent of control (RPS6KA5 KD2 (human)) was 40%, the kinase still bound, per cent of control (CHEK1 (human)) was 0% and the kinase still bound, per cent of control (PKN2 (human)) was 3.2%. The kinase still bound, per cent of control (RIOK1 (human)) was 2.6%, the kinase still bound, per cent of control (BLK (human)) was 0.1% and the kinase still bound, per cent of control (STK32C (human)) was 3.1%. The kinase still bound, per cent of control (NTRK3 (human)) was 40%, the kinase still bound, per cent of control (WEE1 (human)) was 17% and the kinase still bound, per cent of control (PIK3CD (human)) was 40%. It also gave a kinase still bound, per cent of control (MARK4 (human)) of 0%, a kinase still bound, per cent of control (ABL2 (human)) of 1.4% and a kinase still bound, per cent of control (PRKAA2 (human)) of 0.15%. The kinase still bound, per cent of control (CAMKK1 (human)) was 0.2%, the kinase still bound, per cent of control (CDK3 (human)) was 40% and the kinase still bound, per cent of control (TEK (human)) was 0%. For the same compound, the kinase still bound, per cent of control (LIMK2 (human)) was 6.5%, the kinase still bound, per cent of control (MAPK13 (human)) was 40% and the kinase still bound, per cent of control (MAPK3 (human)) was 0.1%. The kinase still bound, per cent of control (CaMK1 (human)) was 1.4%, the kinase still bound, per cent of control (SRPK1 (human)) was 2.2% and the kinase still bound, per cent of control (RIPK1 (human)) was 18%. It also gave a kinase still bound, per cent of control (PDPK1 (human)) of 28%, a kinase still bound, per cent of control (EPHB4 (human)) of 17% and a kinase still bound, per cent of control (MYLK2 (human)) of 40%. The kinase still bound, per cent of control (CSK (human)) was 2%, the kinase still bound, per cent of control (RPS6KA6 KD1 (human)) was 1.1% and the kinase still bound, per cent of control [2] was 40%. It also gave a kinase still bound, per cent of control (STK16 (human)) of 2.8%, a kinase still bound, per cent of control (MAP4K3 (human)) of 2.5% and a kinase still bound, per cent of control (EPHA3 (human)) of 40%. The kinase still bound, per cent of control (CAMKK2 (human)) was 0.1%, the kinase still bound, per cent of control (MAPK1 (human)) was 0.3% and the kinase still bound, per cent of control (AXL (human)) was 0.1%. For the same compound, the kinase still bound, per cent of control (PLK4 (human)) was 0%.
